Measurements reported in patent EP2718307B1, “BETA-HAIRPIN PEPTIDOMIMETICS AS CXC4 ANTAGONISTS” (Polyphor AG, priority 2011, dated 2012).
Bridge positions count the residues as written; N and C are the ends. Square brackets hold non-standard residues; d marks the D form. Peptide text beside a SMILES is read from it. Lys(iPr) = CC(C)NCCCC[C@H](N)C(=O)O; Orn(iPr) = CC(C)NCCC[C@H](N)C(=O)O

System: HSC mobilization
Assay: HSC mobilization in mouse (time-response and dose-response study, CFU-C assay)
Assay type: in vivo, Male C57BI/6 mice
Conditions: for time of maximum mobilization: from time-response study; for ED50: sigmoidal fit of doses 1.5, 5 and 15 mg/kg i.p., maximum constrained to 4000 CFU/mL, ED50 corresponds to 2000 CFU/mL
Experimental: For the compounds of Ex. 1 and Ex. 2 a HSC mobilization study was performed consisting of a time-response study to assess the time of maximum mobilization after dosing and a subsequent dose-response study.
Male C57BI/6 mice (Janvier, France; n = 5 for Ex. 1, n = 3 for Ex. 2) received bolus i.p. injections of Ex. 1 and Ex. 2, respectively, (5 mg/kg) dissolved in 10 µL of water per g mouse weight containing 0.9% NaCl. Blood was withdrawn from the cheek pouch into EDTA coated tubes for the time points 0, 0.5, 1, 2, 4, 6 and 8 hrs after administration. The colony forming unit in culture counts (CFU-C counts) were determined by performing a CFU-C assay as described below.
Male C57BI/6 mice (Janvier, France; n = 5 per dose group for Ex. 1, n = 3 per dose group for Ex. 2) received bolus i.p. injections of Ex. 1 and Ex. 2, respectively, at doses of 0.5, 1.5, 5 and 15 mg/kg (compound dissolved in 10 µL of water per g mouse weight containing 0.9% NaCl). Blood was collected as described above at the time of maximum mobilization for Ex. 1 (4 h) and Ex. 2 (2 h), respectively.
CFU-C counts were determined by culturing aliquots of lysed peripheral blood in standard semi-solid progenitor cell culture medium. In brief, a defined amount of blood was washed with PBS buffer (Gibco®) containing 0.5% bovine serum albumin, followed by red blood cell lysis in hypotonic NH4Cl buffer (Sigma) and a second wash step. The cell pellet was resuspended in DMEM (Gibco®) containing 10% FCS, suspended in 2 mL of commercially available, cytokine-replete methylcellulose medium for murine cells (Cell Systems, USA), and plated in duplicate into 35 mm cell culture dishes. CFU-C were scored after 7-8 days incubation under standard conditions (20% O2, saturated humidity, 5% CO2, 37 °C). Peripheral blood cellularity was analyzed using an automated blood count machine (Drew Scientific).
Considering the curve progressions of both compounds the dose-responses are constrained to a maximum response of 4000 CFU/mL. The ED50-values indicated in Table 9 are therefore corresponding to a response of 2000 CFU/mL.

[1] = time-response study, 5 mg/kg bolus i.p., 0.5 h after administration
[2] = time-response study, 5 mg/kg bolus i.p., 1 h after administration
[3] = time-response study, 5 mg/kg bolus i.p., 2 h after administration
[4] = time-response study, 5 mg/kg bolus i.p., 4 h after administration
[5] = time-response study, 5 mg/kg bolus i.p., 6 h after administration
[6] = time-response study, 5 mg/kg bolus i.p., 8 h after administration

SMILES | CFU/mL ± SD (dose-response study, 1.5 mg/kg bolus i.p., blood collected at 2 h) | CFU/mL ± SD (dose-response study, 5 mg/kg bolus i.p., blood collected at 2 h) | CFU/mL ± SD (dose-response study, 15 mg/kg bolus i.p., blood collected at 2 h) | time of maximum mobilization (5 mg/kg bolus i.p.) | ED50 | CFU/mL ± SD [1] | CFU/mL ± SD [2] | CFU/mL ± SD [3] | CFU/mL ± SD [4] | CFU/mL ± SD [5] | CFU/mL ± SD [6] | CFU/mL ± SD (dose-response study, 0.5 mg/kg bolus i.p., blood collected at 4 h) | CFU/mL ± SD (dose-response study, 1.5 mg/kg bolus i.p., blood collected at 4 h) | CFU/mL ± SD (dose-response study, 5 mg/kg bolus i.p., blood collected at 4 h) | CFU/mL ± SD (dose-response study, 15 mg/kg bolus i.p., blood collected at 4 h)
COc1ccc(C[C@@H]2NC(=O)[C@H](Cc3c[nH]cn3)NC(=O)[C@H](Cc3ccc(O)cc3)NC(=O)[C@@H]3CCCN3C(=O)[C@H]3CCCN3C(=O)[C@H](CCCCNC(C)C)NC(=O)[C@H](CCC(N)=O)NC(=O)[C@H](Cc3ccc(O)cc3)NC(=O)[C@@H]3CSSC[C@H](NC2=O)C(=O)N[C@@H](CO)C(=O)N[C@@H](C)C(=O)N2CCC[C@@H]2C(=O)N[C@@H](CCCNC(C)C)C(=O)N[C@@H](CCCNC(=N)N)C(=O)N[C@@H](Cc2ccc(O)cc2)C(=O)N3)cc1 [Ex. 2, cyclo(-Tyr^1-His^2-Tyr(Me)^3-Cys^4-Ser^5-Ala^6-^DPro^7-Orn(iPr)^8-Arg^9-Tyr^10-Cys^11-Tyr^12-Gln^13-Lys(iPr)^14-^DPro^15-Pro^16-), disulfide bond between Cys^4 and Cys^11] (cyclo(YHY(Me)CSA[dP][Orn(iPr)]RYCYQ[Lys(iPr)][dP]P); disulfide 4-11) | 1314 ± 463 CFU/mL | 2894 ± 329 CFU/mL | 3589 ± 576 CFU/mL | 2 h | 2.38 mg/kg | 839 ± 148 CFU/mL | 1020 ± 262 CFU/mL | 2894 ± 329 CFU/mL | 1929 ± 643 CFU/mL | 1164 ± 151 CFU/mL | 373 ± 96 CFU/mL | – | – | – | –
CC(C)NCCCC[C@@H]1NC(=O)[C@H](CCC(N)=O)NC(=O)[C@H](Cc2ccc(O)cc2)NC(=O)[C@@H]2CSSC[C@H](NC(=O)[C@H](Cc3ccc(O)cc3)NC(=O)[C@H](Cc3c[nH]cn3)NC(=O)[C@H](Cc3ccc(O)cc3)NC(=O)[C@@H]3CCCN3C(=O)[C@H]3CCCN3C1=O)C(=O)N[C@@H](CO)C(=O)N[C@@H](C)C(=O)N1CCC[C@@H]1C(=O)N[C@@H](CCCNC(C)C)C(=O)N[C@@H](CCCNC(=N)N)C(=O)N[C@@H](Cc1ccc(O)cc1)C(=O)N2 [Ex. 1, cyclo(-Tyr^1-His^2-Tyr^3-Cys^4-Ser^5-Ala^6-^DPro^7-Orn(iPr)^8-Arg^9-Tyr^10-Cys^11-Tyr^12-Gln^13-Lys(iPr)^14-^DPro^15-Pro^16-), disulfide bond between Cys^4 and Cys^11] (cyclo(YHYCSA[dP][Orn(iPr)]RYCYQ[Lys(iPr)][dP]P); disulfide 4-11) | – | – | – | 4 h | 1.76 mg/kg | 511 ± 85 CFU/mL | 2208 ± 262 CFU/mL | 2592 ± 450 CFU/mL | 3109 ± 537 CFU/mL | 1857 ± 281 CFU/mL | 588 ± 161 CFU/mL | 974 ± 57 CFU/mL | 1672 ± 233 CFU/mL | 3325 ± 310 CFU/mL | 3289 ± 431 CFU/mL
